# Reference: patent US20230241031A1, “Composition, Comprising Rip Kinase Inhibitor, For Preventing Hair Loss Or Promoting Hair Regrowth” (Epi Biotech Co., Ltd., priority 2019, published 2023)
# Columns and labels:
# [1] = system: mouse vibrissae; experiment: Hair growth induction in organ-cultured mouse vibrissae; assay type: cell-based, mouse (C57BL/6 female mice); conditions: vibrissae cultured 3 days at 37° C.; for degree of hair growth induction (efficacy of promoting hair growth): vs untreated group; for degree of hair growth induction (effect of promoting hair growth): compared to inactive type necrostatin-1, FIG. 1; for degree of hair growth induction: siRNA treatment, vs control siRNA, FIG. 6
# Description: Specifically, the vibrissae of C57BL/6 female mice were trimmed and organ cultured. […] The vibrissae of the three treatment groups were treated with 10 μM, respectively, and then cultured for 3 days in an incubator at 37° C.
# (§1) Specifically, the vibrissae of C57BL/6 female mice were trimmed and organ cultured. The trimmed vibrissae were cultured in a 48-well plate so as to become one per well, and divided into a total of 3 groups: the untreated group (control group), the group treated with 1 μM sibiriline, and the group treated with 10 μM sibiriline. The vibrissae were treated, respectively, and then cultured for 3 days in an incubator at 37° C.
# as §1, with “GSK963,” for “sibiriline,”, “GSK963.” for “sibiriline.”
# as §1, with “of C57/BL6” for “of C57BL/6”, “of 4” for “of 3”, “μM GSK2982772,” for “μM sibiriline, and”, “μM GSK2982772, and the group treated with 50 μM GSK2982772.” for “μM sibiriline.”
# as §1, with “the” for “the untreated”, “treated with RIPK1 siRNA,” for “(control group),”, “RIPK3 siRNA,” for “1 μM sibiriline,”, “control siRNA (control group) in Table 1.” for “10 μM sibiriline.”
# [2] = system: C3H/HeN mice; experiment: Hair regrowth on the back of depilated mice after topical application; assay type: in vivo, mouse (C3H/HeN, male); conditions: 100 μl applied to the back, 13 days, FIG. 2
# Description: The hairs of ten 6-week-old male C3H/HeN mice were shaved short using a depilatory machine, and the remaining hairs were completely removed using a depilatory agent, and then they were stabilized for one day before use in the experiment.
# Mice were divided into 5 mice per group under the following conditions to conduct an experiment.
# After 13 days, the hairs on the back of the mouse in which hair regrowth occurred were shaved using a razor, and then the hairs were obtained, and the weight was measured.
compound,measurement,setting,value
CC(C)(C)C(=O)N1N=CCC1c1ccccc1 (stereo not shown) [GSK963],degree of hair growth induction (efficacy of promoting hair growth),[1]; 1 μM,excellent efficacy of promoting hair growth
same,degree of hair growth induction (efficacy of promoting hair growth),[1]; 10 μM,excellent efficacy of promoting hair growth
CN1C(=O)[C@@H](NC(=O)c2nnc(Cc3ccccc3)[nH]2)COc2ccccc21 [GSK2982772],degree of hair growth induction (efficacy of promoting hair growth),[1]; 1 μM,excellent efficacy of promoting hair growth
same,degree of hair growth induction (efficacy of promoting hair growth),[1]; 10 μM,excellent efficacy of promoting hair growth
same,degree of hair growth induction (efficacy of promoting hair growth),[1]; 50 μM,excellent efficacy of promoting hair growth
CN1C(=O)C(Cc2c[nH]c3ccccc23)NC1=S (stereo not shown) [necrostatin-1],degree of hair growth induction (effect of promoting hair growth),[1]; 10 μM,excellent effect of promoting hair growth compared to the inactive type necrostatin-1
CN1C(=O)NC(Cc2c[nH]c3c(Cl)cccc23)C1=O (stereo not shown) [necrostatin-1s],effect of inducing hair growth (appearance of hair growth and weight of the hair),"[2]; 100 μM, vs 2% minoxidil group",more excellent effect of inducing hair growth compared to the group administered with commercially available minoxidil
same,hair growth effect (appearance of hair growth and weight of the hair),"[2]; group administered with necrostatin-1s (10 μM or 100 μM), vs untreated control group",excellent hair growth effect compared to the untreated control group
same,degree of hair growth induction (effect of promoting hair growth),[1]; 10 μM,excellent effect of promoting hair growth compared to the inactive type necrostatin-1
Oc1ccc(-c2cc3cccnc3[nH]2)cc1 [sibiriline],degree of hair growth induction (efficacy of promoting hair growth),[1]; 1 μM,excellent efficacy of promoting hair growth
same,degree of hair growth induction (efficacy of promoting hair growth),[1]; 10 μM,excellent efficacy of promoting hair growth
"RIPK1 siRNA: siRNA of SEQ ID NO: 1 and 2 capable of inhibiting RIP kinase expression (chain 1 GUCCUUGUGUUACCACAGA; chain 2 UCUGUGGUAACACAAGGAC; listed as RNA, chemistry not given here)",degree of hair growth induction,[1],hair growth was promoted
"RIPK3 siRNA: siRNA of SEQ ID NO: 3 and 4 capable of inhibiting RIP kinase expression (chain 1 CGAGUGAUGUCUACAGCUU; chain 2 AAGCUGUAGACAUCACUCG; listed as RNA, chemistry not given here)",degree of hair growth induction,[1],hair growth was promoted
